Converted amounts (≈) assume the structure as drawn. The source made the active and inactive calls. The rule behind the calls is not given here.
Legend:
[1] = target: T1, P2Y purinoceptor 14 (Homo sapiens) (UniProt Q15391); assay: Antagonist activity at human P2Y14R expressed in HEK293 cells assessed as inhibition of UDPG-induced Ca2+ level at 5 uM by Fluo-4 dye based fluorescence assay relative to control; assay type: functional, cell-based
T1 sequence (whole entry): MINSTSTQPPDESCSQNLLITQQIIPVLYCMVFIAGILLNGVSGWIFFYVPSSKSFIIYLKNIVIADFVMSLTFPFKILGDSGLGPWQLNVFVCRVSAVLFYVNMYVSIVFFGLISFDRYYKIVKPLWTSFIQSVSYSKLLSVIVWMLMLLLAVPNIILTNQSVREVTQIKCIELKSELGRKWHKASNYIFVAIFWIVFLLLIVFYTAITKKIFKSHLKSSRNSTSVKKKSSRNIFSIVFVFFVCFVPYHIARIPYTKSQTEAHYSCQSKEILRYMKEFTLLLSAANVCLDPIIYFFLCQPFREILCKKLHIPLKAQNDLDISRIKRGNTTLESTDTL

[2] = target: T2, P2Y purinoceptor 14 (Homo sapiens, UniProt Q15391); assay: Antagonist activity at human P2Y14R expressed in HEK293 cells assessed as inhibition of UDPG-induced Ca2+ level by Fluo-4 dye based fluorescence assay; assay type: functional, cell-based
T2 sequence (Q15391 whole entry): T1 sequence (whole entry)

[3] = target: T1, P2Y purinoceptor 14 (Homo sapiens); assay: (§1) Binding affinity to P2Y14R (unknown origin) assessed as increase in response unit by surface plasmon resonance assay; details: filed as antagonist
[4] = target: T2, P2Y purinoceptor 14; assay: as §1
[5] = Cmax in SD […] at 5 mg/kg, iv; assay type: ADME, organism-based; details: in vivo
[6] = Half life in SD […] at 5 mg/kg, iv; assay type: ADME, organism-based; details: in vivo
[7] = Tmax in SD […] at 5 mg/kg, iv; assay type: ADME, organism-based; details: in vivo
[8] = AUC (0 to 24 hrs) in SD […] at 5 mg/kg, iv; assay type: ADME, organism-based; details: in vivo
[9] = Cmax in SD […] at 10 mg/kg, po; assay type: ADME, organism-based; details: in vivo
[10] = Half life in SD […] at 10 mg/kg, po; assay type: ADME, organism-based; details: in vivo
[11] = Tmax in SD […] at 10 mg/kg, po; assay type: ADME, organism-based; details: in vivo
[12] = AUC (0 to 24 hrs) in SD […] at 10 mg/kg, po; assay type: ADME, organism-based; details: in vivo
[13] = Clearance in SD […] at 10 mg/kg, po; assay type: ADME, organism-based; details: in vivo
[14] = Oral bioavailability in SD […] at 10 mg/kg; assay type: ADME, organism-based; details: in vivo
[15] = Aqueous solubility of the compound in pH 7.4 PBS buffer measured after 24 hrs by shake flask method; assay type: physicochemical
[16] = Aqueous solubility of the compound in pH 4 PBS buffer measured after 24 hrs by shake flask method; assay type: physicochemical
[17] = tested on: Mus musculus; assay: (§2) Antiinflammatory activity in LPS-induced C57BL/6 mouse ALI model assessed as reduction in neutrophil infiltration at 2 mg/kg, po administered once daily via gavage for 7 days followed by endotoxin challenge at 1 hr post last dose and subsequent LPS stimulation and measured after 24 hrs by H and E staining based histopathological assay; assay type: functional, organism-based; details: time 8.0 day
[18] = tested on: Mus musculus; assay: as §2, with “interstitial hemorrhage” for “neutrophil infiltration”; assay type: functional, organism-based; details: time 8.0 day
[19] = tested on: Mus musculus; assay: as §2, with “in interstitial hemorrhage” for “in neutrophil infiltration”, “at 6” for “at 2”; assay type: functional, organism-based; details: time 8.0 day
[20] = tested on: Mus musculus; assay: as §2, with “in alveolar wall thickening” for “in neutrophil infiltration”, “at 6” for “at 2”; assay type: functional, organism-based; details: time 8.0 day
[21] = tested on: Mus musculus; assay: as §2, with “at 6” for “at 2”; assay type: functional, organism-based; details: time 8.0 day
[22] = tested on: Mus musculus; assay: as §2, with “as appearance of intact alveolar structures” for “as reduction in neutrophil infiltration”, “at 6” for “at 2”; assay type: functional, organism-based; details: time 8.0 day
[23] = tested on: Mus musculus; assay: as §2, with “inflammatory response in lung” for “neutrophil infiltration at 2 mg/kg, po”, “via oral” for “via”; assay type: functional, organism-based; details: dose 2-6 mg/kg, time 8.0 day
[24] = tested on: Mus musculus; assay: (§3) Antiinflammatory activity in LPS-induced C57BL/6 mouse ALI model assessed as reduction in IL-1beta expression in BALF at 2 to 6 mg/kg, po administered once daily via gavage for 7 days followed by endotoxin challenge at 1 hr post last dose and subsequent LPS stimulation and measured after 24 hrs by ELISA; assay type: functional, organism-based; details: dose 2-6 mg/kg, time 8.0 day
[25] = tested on: Mus musculus; assay: Antiinflammatory activity in LPS-induced C57BL/6 mouse ALI model assessed as reduction in IL-6 expression in BALF at 2 to 6 mg/kg, po administered once daily via gavage for 7 days followed by endotoxin challenge at 1 hr post last dose and subsequent LPS stimulation and measured after 24 hrs by ELISA; assay type: functional, organism-based; details: dose 2-6 mg/kg, time 8.0 day
[26] = tested on: Mus musculus; assay: as §3, with “TNF-alpha” for “IL-1beta”; assay type: functional, organism-based; details: dose 2-6 mg/kg, time 8.0 day
[27] = tested on: Mus musculus; assay: Antiinflammatory activity in LPS-induced C57BL/6 mouse ALI model assessed as reduction in MPO level in BALF at 6 mg/kg, po administered once daily via gavage for 7 days followed by endotoxin challenge at 1 hr post last dose and subsequent LPS stimulation and measured after 24 hrs by ELISA; assay type: functional, organism-based; details: time 8.0 day

O=C(O)c1cc(NS(=O)(=O)c2ccc(-c3ccccc3)cc2)cc(-c2ccc(C3CCNCC3)cc2)c1
inhibition ([1]; filed as antagonist): 60.5%

O=C(O)c1cc(NS(=O)(=O)c2ccc(-c3ccc(Br)cc3)cc2)cc(-c2ccc(C3CCNCC3)cc2)c1
inhibition ([1]; filed as antagonist): 68.9%

O=C(O)c1cc(NS(=O)(=O)c2ccc(OC(F)(F)F)cc2)cc(-c2ccc(C3CCNCC3)cc2)c1
inhibition [1]: 32.1%

O=C(O)c1cc(NS(=O)(=O)CCc2ccc(Cl)cc2)cc(-c2ccc(C3CCNCC3)cc2)c1
inhibition ([1]; filed as antagonist): 92.6%
IC50 [2]: 28.6 nM

O=C(O)c1cc(NS(=O)(=O)c2ccc(-c3ccc(Cl)cc3)cc2)cc(-c2ccc(C3CCNCC3)cc2)c1
inhibition ([1]; filed as antagonist): 79.4%

O=C(O)c1cc(NS(=O)(=O)c2ccc(F)cc2)cc(-c2ccc(C3CCNCC3)cc2)c1
inhibition ([1]; filed as antagonist): 85.2%
IC50 [2]: 49.6 nM

O=C(O)c1cc(NS(=O)(=O)Cc2ccc([N+](=O)[O-])cc2)cc(-c2ccc(C3CCNCC3)cc2)c1
inhibition ([1]; filed as antagonist): 88.6%
IC50 [2]: 20.6 nM

O=C(O)c1cc(NS(=O)(=O)CCc2ccc(Br)cc2)cc(-c2ccc(C3CCNCC3)cc2)c1
inhibition ([1]; filed as antagonist): 96.7%
IC50 [2]: 19.6 nM

O=C(O)c1cc(NS(=O)(=O)c2ccc(Br)cc2)cc(-c2ccc(C3CCNCC3)cc2)c1
inhibition ([1]; filed as antagonist): 81%

COc1ccccc1S(=O)(=O)Nc1cc(C(=O)O)cc(-c2ccc(C3CCNCC3)cc2)c1
inhibition [1]: 14.3%

O=C(O)c1cc(NS(=O)(=O)CCc2ccc(F)cc2)cc(-c2ccc(C3CCNCC3)cc2)c1
inhibition ([1]; filed as antagonist): 85.4%
IC50 [2]: 42.6 nM

O=C(O)c1cc(NS(=O)(=O)c2ccc([N+](=O)[O-])cc2)cc(-c2ccc(C3CCNCC3)cc2)c1
inhibition ([1]; filed as antagonist): 82.6%

O=C(O)c1cc(NS(=O)(=O)CCc2ccc(C(F)(F)F)cc2)cc(-c2ccc(C3CCNCC3)cc2)c1
inhibition ([1]; filed as antagonist): 99.6%
IC50 [2]: 5.6 nM
Activity [3]: Dose-dependent-effect
Kd [4]: 1730 nM
Cmax [5]: 731 ng/mL
half-life [6]: 2.6 h
Tmax [7]: 0.933 h
AUC [8]: 1764 ng·h/mL
Cmax [9]: 984 ng/mL
half-life [10]: 4.5 h
Tmax [11]: 1.55 h
AUC(0-t) [12]: 2170 ng·h/mL
CL/F [13]: 18.6 mL/min/kg
bioavailability [14]: 44%
solubility thermodynamic at 24 h [15]: 108 µg/mL (≈ 203 µM)
solubility thermodynamic at 24 h [16]: 127 µg/mL (≈ 238 µM)
Activity [17]: Active
Activity [18]: Not active; No Significant Interstitial Hemorrhage Observed
Activity [19]: Active; Substantial Reduction Observed
Activity [20]: Active
Activity [21]: Active
Activity [22]: Active
Activity [23]: Dose-dependent-effect
Activity [24]: Active
Activity [25]: Active
Activity [26]: Active
Activity [27]: Active

O=C(O)c1cc(NS(=O)(=O)CCc2ccccc2)cc(-c2ccc(C3CCNCC3)cc2)c1
inhibition ([1]; filed as antagonist): 82.7%

O=C(O)c1cc(NS(=O)(=O)Cc2ccccc2F)cc(-c2ccc(C3CCNCC3)cc2)c1
inhibition ([1]; filed as antagonist): 80.6%

COc1ccc(S(=O)(=O)Nc2cc(C(=O)O)cc(-c3ccc(C4CCNCC4)cc3)c2)cc1
inhibition ([1]; filed as antagonist): 70.8%

CC(C)c1ccc(S(=O)(=O)Nc2cc(C(=O)O)cc(-c3ccc(C4CCNCC4)cc3)c2)cc1
inhibition ([1]; filed as antagonist): 69.5%

O=C(O)c1cc(NS(=O)(=O)c2ccc(-c3ccc(F)cc3)cc2)cc(-c2ccc(C3CCNCC3)cc2)c1
inhibition ([1]; filed as antagonist): 59.7%

O=C(O)c1cc(NS(=O)(=O)c2ccc(C(F)(F)F)cc2)cc(-c2ccc(C3CCNCC3)cc2)c1
inhibition ([1]; filed as antagonist): 90.8%
IC50 [2]: 23.2 nM
